Data taken from ChEMBL document CHEMBL4229482, “Design, synthesis and biological evaluation of novel spiro-pentacylamides as acetyl-CoA carboxylase inhibitors” (Bioorg Med Chem, 2018).

The molecules below were run on SW-620 (assay: cells). Conditions: Homo sapiens, SW-620, 48 h.
Description: Antiproliferative activity against human SW620 cells after 48 hrs by MTT assay

Row | Structure (SMILES) | IC50
1 | O=C(c1ccc2[nH]c(-c3ccncc3)nc2c1)N1CCC2(CC1)CC(=O)N(c1ccc(C(F)(F)F)cc1)C2 | 7.24 µM
2 | COC(=O)c1ccc(N2CC3(CCN(C(=O)c4cc(C)c5[nH]ncc5c4)CC3)CC2=O)cc1 | > 10 µM
3 | O=C(c1ccc2[nH]c(-c3ccco3)nc2c1)N1CCC2(CC1)CC(=O)N(c1ccc(C(F)(F)F)cc1)C2 | 3.26 µM
4 | O=C(c1ccc2[nH]c(-c3ccccc3)nc2c1)N1CCC2(CC1)CC(=O)N(c1ccc(C(F)(F)F)cc1)C2 | 2.05 µM
5 | CC(C)c1ccc(-c2nc3cc(C(=O)N4CCC5(CC4)CC(=O)N(c4ccc(C(F)(F)F)cc4)C5)ccc3[nH]2)cc1 | > 10 µM
6 | CCCc1nc2cc(C(=O)N3CCC4(CC3)CC(=O)N(c3ccc(C(F)(F)F)cc3)C4)cc(C)c2[nH]1 | 1.82 µM
7 | Cc1cc(C(=O)N2CCC3(CC2)CC(=O)N(c2ccc(C(F)(F)F)cc2)C3)cc2cn[nH]c12 | > 10 µM
8 | O=C(c1ccc2[nH]c3c(c2c1)CCCC3)N1CCC2(CC1)CC(=O)N(c1ccc(C(F)(F)F)cc1)C2 | 4.74 µM
9 | Cc1cc(C(=O)N2CCC3(CC2)CC(=O)c2nn(C(C)(C)C)cc2O3)cc2cn[nH]c12 | 3.19 µM

Each molecule was assayed on HCT-116 (assay: cells). Conditions: Homo sapiens, HCT-116, 48 h.

Row | Structure (SMILES) | IC50
10 | O=C(c1ccc2[nH]c(-c3ccncc3)nc2c1)N1CCC2(CC1)CC(=O)N(c1ccc(C(F)(F)F)cc1)C2 | 7.64 µM
11 | COC(=O)c1ccc(N2CC3(CCN(C(=O)c4cc(C)c5[nH]ncc5c4)CC3)CC2=O)cc1 | > 10 µM
12 | O=C(c1ccc2[nH]c(-c3ccco3)nc2c1)N1CCC2(CC1)CC(=O)N(c1ccc(C(F)(F)F)cc1)C2 | > 10 µM
13 | O=C(c1ccc2[nH]c(-c3ccccc3)nc2c1)N1CCC2(CC1)CC(=O)N(c1ccc(C(F)(F)F)cc1)C2 | 1.22 µM
14 | CC(C)c1ccc(-c2nc3cc(C(=O)N4CCC5(CC4)CC(=O)N(c4ccc(C(F)(F)F)cc4)C5)ccc3[nH]2)cc1 | 6.21 µM
15 | CCCc1nc2cc(C(=O)N3CCC4(CC3)CC(=O)N(c3ccc(C(F)(F)F)cc3)C4)cc(C)c2[nH]1 | 4.21 µM
16 | Cc1cc(C(=O)N2CCC3(CC2)CC(=O)N(c2ccc(C(F)(F)F)cc2)C3)cc2cn[nH]c12 | 8.67 µM
17 | O=C(c1ccc2[nH]c3c(c2c1)CCCC3)N1CCC2(CC1)CC(=O)N(c1ccc(C(F)(F)F)cc1)C2 | 8.67 µM
18 | Cc1cc(C(=O)N2CCC3(CC2)CC(=O)c2nn(C(C)(C)C)cc2O3)cc2cn[nH]c12 | 2.43 µM

The molecules below were run against Acetyl-CoA carboxylase 1 (Homo sapiens, UniProt Q13085) (assay: Inhibition of C-terminal His-tagged recombinant human ACC1 (1 to 2383 residues) expressed in Baculovirus infected Sf9 insect cells using acetyl CoA as substrate preincubated for 15 mins followed by substrate addition and measured after 60 mins by ADP-Glo assay). Conditions: not given.

Row | Structure (SMILES) | IC50
19 | Cc1cc(C(=O)N2CCC3(CC2)CC(=O)N(c2ccc(C#N)cc2F)C3)cc2cn[nH]c12 | 3.56 µM
20 | O=C(c1ccc2cn[nH]c2c1)N1CCC2(CC1)CC(=O)N(c1ccc(C(F)(F)F)cc1)C2 | 4.73 µM
21 | O=C(c1ccc2[nH]c(-c3ccncc3)nc2c1)N1CCC2(CC1)CC(=O)N(c1ccc(C(F)(F)F)cc1)C2 | 2.65 µM
22 | Cc1nc2cc(C(=O)N3CCC4(CC3)CC(=O)N(c3ccc(C(F)(F)F)cc3)C4)ccc2[nH]1 | 2.22 µM
23 | O=C(c1ccc2[nH]ccc2c1)N1CCC2(CC1)CC(=O)N(c1ccc(C(F)(F)F)cc1)C2 | > 5 µM
24 | COC(=O)c1ccc(N2CC3(CCN(C(=O)c4cc(C)c5[nH]ncc5c4)CC3)CC2=O)cc1 | 2.24 µM
25 | O=C(c1ccc2[nH]c(-c3ccco3)nc2c1)N1CCC2(CC1)CC(=O)N(c1ccc(C(F)(F)F)cc1)C2 | 1.05 µM
26 | O=C(c1ccc2[nH]c(-c3ccccc3)nc2c1)N1CCC2(CC1)CC(=O)N(c1ccc(C(F)(F)F)cc1)C2 | 0.527 µM
27 | Cc1cc(C(=O)N2CCC3(CC2)CC(=O)N(c2ccc(C#N)cc2)C3)cc2cn[nH]c12 | 3.99 µM
28 | CC(C)c1ccc(-c2nc3cc(C(=O)N4CCC5(CC4)CC(=O)N(c4ccc(C(F)(F)F)cc4)C5)ccc3[nH]2)cc1 | 1.15 µM
29 | O=C(c1ccc2[nH]c3c(c2c1)CCC3)N1CCC2(CC1)CC(=O)N(c1ccc(C(F)(F)F)cc1)C2 | 4.27 µM
30 | O=C(c1ccc2cc[nH]c2c1)N1CCC2(CC1)CC(=O)N(c1ccc(C(F)(F)F)cc1)C2 | 4.95 µM
31 | O=C(c1cnc2ccccc2c1)N1CCC2(CC1)CC(=O)N(c1ccc(C(F)(F)F)cc1)C2 | > 5 µM
32 | O=C(c1ccc2cccnc2c1)N1CCC2(CC1)CC(=O)N(c1ccc(C(F)(F)F)cc1)C2 | 4.92 µM
33 | CCCc1nc2cc(C(=O)N3CCC4(CC3)CC(=O)N(c3ccc(C(F)(F)F)cc3)C4)cc(C)c2[nH]1 | 1.69 µM
34 | Cc1cc(C(=O)N2CCC3(CC2)CC(=O)N(c2ccc(C(=O)O)cc2)C3)cc2cn[nH]c12 | 2.79 µM
35 | Cc1cc(C(=O)N2CCC3(CC2)CC(=O)N(c2ccc(C(F)(F)F)cc2)C3)cc2cn[nH]c12 | 1.2 µM
36 | O=C(c1ccc2[nH]c3c(c2c1)CCCC3)N1CCC2(CC1)CC(=O)N(c1ccc(C(F)(F)F)cc1)C2 | 1.95 µM
37 | O=C(c1ccc2ncccc2c1)N1CCC2(CC1)CC(=O)N(c1ccc(C(F)(F)F)cc1)C2 | > 5 µM
38 | Cc1cc(C(=O)N2CCC3(CC2)CC(=O)c2nn(C(C)(C)C)cc2O3)cc2cn[nH]c12 | 0.032 µM
39 | Cc1cc(N2CC3(CCN(C(=O)c4cc(C)c5[nH]ncc5c4)CC3)CC2=O)ccc1C#N | 2.01 µM

The molecules below were run against Acetyl-CoA carboxylase 2 (Homo sapiens, UniProt O00763) (assay: Inhibition of C-terminal His-tagged full length human ACC2 expressed in Baculovirus infected Sf9 insect cells using acetyl CoA as substrate preincubated for 15 mins followed by substrate addition and measured after 60 mins by ADP-Glo assay). Conditions: not given.
Chain of Acetyl-CoA carboxylase 2 (O00763 whole entry): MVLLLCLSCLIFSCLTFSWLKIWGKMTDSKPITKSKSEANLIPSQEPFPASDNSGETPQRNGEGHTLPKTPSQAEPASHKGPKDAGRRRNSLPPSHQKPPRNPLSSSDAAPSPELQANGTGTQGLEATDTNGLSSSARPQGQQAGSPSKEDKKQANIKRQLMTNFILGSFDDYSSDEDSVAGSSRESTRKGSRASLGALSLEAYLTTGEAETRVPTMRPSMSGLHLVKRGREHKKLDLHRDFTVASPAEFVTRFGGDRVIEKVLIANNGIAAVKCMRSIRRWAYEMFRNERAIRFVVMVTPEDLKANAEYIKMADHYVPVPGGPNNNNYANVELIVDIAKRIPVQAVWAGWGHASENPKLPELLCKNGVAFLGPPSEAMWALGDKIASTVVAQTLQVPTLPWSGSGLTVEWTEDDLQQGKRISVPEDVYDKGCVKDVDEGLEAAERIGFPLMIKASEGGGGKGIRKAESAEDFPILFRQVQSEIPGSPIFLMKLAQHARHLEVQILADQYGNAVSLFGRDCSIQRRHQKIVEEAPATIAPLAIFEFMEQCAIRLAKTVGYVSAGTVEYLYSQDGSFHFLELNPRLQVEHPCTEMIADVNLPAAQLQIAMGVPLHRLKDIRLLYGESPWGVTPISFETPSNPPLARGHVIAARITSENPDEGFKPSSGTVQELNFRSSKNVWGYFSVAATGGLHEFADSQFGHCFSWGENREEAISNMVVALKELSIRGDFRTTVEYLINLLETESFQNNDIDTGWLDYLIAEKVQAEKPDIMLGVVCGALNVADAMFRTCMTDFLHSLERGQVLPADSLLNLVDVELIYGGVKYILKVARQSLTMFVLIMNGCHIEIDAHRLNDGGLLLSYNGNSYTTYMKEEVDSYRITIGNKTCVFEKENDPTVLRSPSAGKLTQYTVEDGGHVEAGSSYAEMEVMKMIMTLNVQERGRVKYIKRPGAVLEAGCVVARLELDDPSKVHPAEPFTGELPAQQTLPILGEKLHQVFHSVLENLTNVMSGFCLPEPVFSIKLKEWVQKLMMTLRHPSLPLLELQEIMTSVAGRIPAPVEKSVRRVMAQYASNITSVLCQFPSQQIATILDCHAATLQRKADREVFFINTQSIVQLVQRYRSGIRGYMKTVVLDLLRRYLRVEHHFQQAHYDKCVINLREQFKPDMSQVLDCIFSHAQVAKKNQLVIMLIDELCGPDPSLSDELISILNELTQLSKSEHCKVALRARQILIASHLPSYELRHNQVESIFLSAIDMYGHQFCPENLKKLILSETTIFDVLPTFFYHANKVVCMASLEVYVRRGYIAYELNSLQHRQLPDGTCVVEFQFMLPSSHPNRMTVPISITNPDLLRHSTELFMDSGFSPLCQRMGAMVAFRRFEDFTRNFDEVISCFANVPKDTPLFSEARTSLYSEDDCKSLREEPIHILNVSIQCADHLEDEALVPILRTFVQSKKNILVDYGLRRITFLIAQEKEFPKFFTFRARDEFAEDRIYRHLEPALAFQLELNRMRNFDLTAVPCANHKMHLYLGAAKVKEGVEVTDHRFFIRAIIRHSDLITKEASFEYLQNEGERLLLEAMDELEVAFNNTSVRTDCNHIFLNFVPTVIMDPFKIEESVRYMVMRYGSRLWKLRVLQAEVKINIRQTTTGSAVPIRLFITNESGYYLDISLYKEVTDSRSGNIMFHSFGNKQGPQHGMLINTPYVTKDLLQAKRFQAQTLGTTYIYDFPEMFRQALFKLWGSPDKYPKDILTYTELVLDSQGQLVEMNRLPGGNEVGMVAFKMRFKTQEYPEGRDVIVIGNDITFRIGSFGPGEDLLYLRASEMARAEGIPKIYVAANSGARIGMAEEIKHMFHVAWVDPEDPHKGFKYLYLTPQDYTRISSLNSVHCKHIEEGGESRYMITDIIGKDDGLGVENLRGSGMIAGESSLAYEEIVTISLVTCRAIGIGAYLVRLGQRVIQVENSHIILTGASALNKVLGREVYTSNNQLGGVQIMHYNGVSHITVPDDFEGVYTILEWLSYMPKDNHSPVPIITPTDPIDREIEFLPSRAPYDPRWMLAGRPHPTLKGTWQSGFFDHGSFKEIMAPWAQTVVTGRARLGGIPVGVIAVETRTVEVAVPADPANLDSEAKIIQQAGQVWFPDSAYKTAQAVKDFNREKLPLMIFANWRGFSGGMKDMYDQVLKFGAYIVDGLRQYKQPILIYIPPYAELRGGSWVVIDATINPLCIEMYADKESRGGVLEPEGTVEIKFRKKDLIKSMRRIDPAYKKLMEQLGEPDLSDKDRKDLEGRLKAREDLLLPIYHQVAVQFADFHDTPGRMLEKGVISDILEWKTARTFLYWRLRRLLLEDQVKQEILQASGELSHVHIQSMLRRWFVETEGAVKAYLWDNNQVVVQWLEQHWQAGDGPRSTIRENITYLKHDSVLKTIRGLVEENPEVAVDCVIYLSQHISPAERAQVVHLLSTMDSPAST

Row | Structure (SMILES) | IC50
40 | Cc1cc(C(=O)N2CCC3(CC2)CC(=O)N(c2ccc(C#N)cc2F)C3)cc2cn[nH]c12 | > 5 µM
41 | O=C(c1ccc2cn[nH]c2c1)N1CCC2(CC1)CC(=O)N(c1ccc(C(F)(F)F)cc1)C2 | 2.74 µM
42 | O=C(c1ccc2[nH]c(-c3ccncc3)nc2c1)N1CCC2(CC1)CC(=O)N(c1ccc(C(F)(F)F)cc1)C2 | 1.24 µM
43 | Cc1nc2cc(C(=O)N3CCC4(CC3)CC(=O)N(c3ccc(C(F)(F)F)cc3)C4)ccc2[nH]1 | 3.02 µM
44 | O=C(c1ccc2[nH]ccc2c1)N1CCC2(CC1)CC(=O)N(c1ccc(C(F)(F)F)cc1)C2 | > 5 µM
45 | COC(=O)c1ccc(N2CC3(CCN(C(=O)c4cc(C)c5[nH]ncc5c4)CC3)CC2=O)cc1 | 1.88 µM
46 | O=C(c1ccc2[nH]c(-c3ccco3)nc2c1)N1CCC2(CC1)CC(=O)N(c1ccc(C(F)(F)F)cc1)C2 | 0.976 µM
47 | O=C(c1ccc2[nH]c(-c3ccccc3)nc2c1)N1CCC2(CC1)CC(=O)N(c1ccc(C(F)(F)F)cc1)C2 | 0.397 µM
48 | Cc1cc(C(=O)N2CCC3(CC2)CC(=O)N(c2ccc(C#N)cc2)C3)cc2cn[nH]c12 | > 5 µM
49 | CC(C)c1ccc(-c2nc3cc(C(=O)N4CCC5(CC4)CC(=O)N(c4ccc(C(F)(F)F)cc4)C5)ccc3[nH]2)cc1 | 0.764 µM
50 | O=C(c1ccc2[nH]c3c(c2c1)CCC3)N1CCC2(CC1)CC(=O)N(c1ccc(C(F)(F)F)cc1)C2 | 3.48 µM
51 | O=C(c1ccc2cc[nH]c2c1)N1CCC2(CC1)CC(=O)N(c1ccc(C(F)(F)F)cc1)C2 | > 5 µM
52 | O=C(c1cnc2ccccc2c1)N1CCC2(CC1)CC(=O)N(c1ccc(C(F)(F)F)cc1)C2 | > 5 µM
53 | O=C(c1ccc2cccnc2c1)N1CCC2(CC1)CC(=O)N(c1ccc(C(F)(F)F)cc1)C2 | > 5 µM
54 | CCCc1nc2cc(C(=O)N3CCC4(CC3)CC(=O)N(c3ccc(C(F)(F)F)cc3)C4)cc(C)c2[nH]1 | 1.94 µM
55 | Cc1cc(C(=O)N2CCC3(CC2)CC(=O)N(c2ccc(C(=O)O)cc2)C3)cc2cn[nH]c12 | 4.65 µM
56 | Cc1cc(C(=O)N2CCC3(CC2)CC(=O)N(c2ccc(C(F)(F)F)cc2)C3)cc2cn[nH]c12 | 0.944 µM
57 | O=C(c1ccc2[nH]c3c(c2c1)CCCC3)N1CCC2(CC1)CC(=O)N(c1ccc(C(F)(F)F)cc1)C2 | 1.11 µM
58 | O=C(c1ccc2ncccc2c1)N1CCC2(CC1)CC(=O)N(c1ccc(C(F)(F)F)cc1)C2 | > 5 µM
59 | Cc1cc(C(=O)N2CCC3(CC2)CC(=O)c2nn(C(C)(C)C)cc2O3)cc2cn[nH]c12 | 0.008 µM
60 | Cc1cc(N2CC3(CCN(C(=O)c4cc(C)c5[nH]ncc5c4)CC3)CC2=O)ccc1C#N | 3.77 µM

The molecules below were run on A549 (assay: cells). Conditions: Homo sapiens, A549, 48 h.

Row | Structure (SMILES) | IC50
61 | O=C(c1ccc2[nH]c(-c3ccncc3)nc2c1)N1CCC2(CC1)CC(=O)N(c1ccc(C(F)(F)F)cc1)C2 | 3.49 µM
62 | COC(=O)c1ccc(N2CC3(CCN(C(=O)c4cc(C)c5[nH]ncc5c4)CC3)CC2=O)cc1 | 2.11 µM
63 | O=C(c1ccc2[nH]c(-c3ccco3)nc2c1)N1CCC2(CC1)CC(=O)N(c1ccc(C(F)(F)F)cc1)C2 | 7.96 µM
64 | O=C(c1ccc2[nH]c(-c3ccccc3)nc2c1)N1CCC2(CC1)CC(=O)N(c1ccc(C(F)(F)F)cc1)C2 | 1.92 µM
65 | CC(C)c1ccc(-c2nc3cc(C(=O)N4CCC5(CC4)CC(=O)N(c4ccc(C(F)(F)F)cc4)C5)ccc3[nH]2)cc1 | 1.03 µM
66 | CCCc1nc2cc(C(=O)N3CCC4(CC3)CC(=O)N(c3ccc(C(F)(F)F)cc3)C4)cc(C)c2[nH]1 | > 10 µM
67 | Cc1cc(C(=O)N2CCC3(CC2)CC(=O)N(c2ccc(C(F)(F)F)cc2)C3)cc2cn[nH]c12 | > 10 µM
68 | O=C(c1ccc2[nH]c3c(c2c1)CCCC3)N1CCC2(CC1)CC(=O)N(c1ccc(C(F)(F)F)cc1)C2 | > 10 µM
69 | Cc1cc(C(=O)N2CCC3(CC2)CC(=O)c2nn(C(C)(C)C)cc2O3)cc2cn[nH]c12 | 0.74 µM

These molecules were tested on NCI-H1975 (assay: Antiproliferative activity against human NCI-H1975 cells after 48 hrs by MTT assay). Conditions: NCI-H1975, 48 h.
Type: functional, cell-based

Row | Structure (SMILES) | IC50
70 | O=C(c1ccc2[nH]c(-c3ccncc3)nc2c1)N1CCC2(CC1)CC(=O)N(c1ccc(C(F)(F)F)cc1)C2 | 0.39 µM
71 | COC(=O)c1ccc(N2CC3(CCN(C(=O)c4cc(C)c5[nH]ncc5c4)CC3)CC2=O)cc1 | 5.64 µM
72 | O=C(c1ccc2[nH]c(-c3ccco3)nc2c1)N1CCC2(CC1)CC(=O)N(c1ccc(C(F)(F)F)cc1)C2 | 0.72 µM
73 | O=C(c1ccc2[nH]c(-c3ccccc3)nc2c1)N1CCC2(CC1)CC(=O)N(c1ccc(C(F)(F)F)cc1)C2 | 0.38 µM
74 | CC(C)c1ccc(-c2nc3cc(C(=O)N4CCC5(CC4)CC(=O)N(c4ccc(C(F)(F)F)cc4)C5)ccc3[nH]2)cc1 | > 10 µM
75 | CCCc1nc2cc(C(=O)N3CCC4(CC3)CC(=O)N(c3ccc(C(F)(F)F)cc3)C4)cc(C)c2[nH]1 | 0.27 µM
76 | Cc1cc(C(=O)N2CCC3(CC2)CC(=O)N(c2ccc(C(F)(F)F)cc2)C3)cc2cn[nH]c12 | > 10 µM
77 | Cc1cc(C(=O)N2CCC3(CC2)CC(=O)c2nn(C(C)(C)C)cc2O3)cc2cn[nH]c12 | 0.21 µM

What follows are molecules tested on Caco-2 (assay: Antiproliferative activity against human Caco2 cells after 48 hrs by MTT assay). Conditions: Caco-2, 48 h.
Type: functional, cell-based

Row | Structure (SMILES) | IC50
78 | O=C(c1ccc2[nH]c(-c3ccncc3)nc2c1)N1CCC2(CC1)CC(=O)N(c1ccc(C(F)(F)F)cc1)C2 | > 10 µM
79 | COC(=O)c1ccc(N2CC3(CCN(C(=O)c4cc(C)c5[nH]ncc5c4)CC3)CC2=O)cc1 | > 10 µM
80 | O=C(c1ccc2[nH]c(-c3ccccc3)nc2c1)N1CCC2(CC1)CC(=O)N(c1ccc(C(F)(F)F)cc1)C2 | 5.42 µM
81 | CC(C)c1ccc(-c2nc3cc(C(=O)N4CCC5(CC4)CC(=O)N(c4ccc(C(F)(F)F)cc4)C5)ccc3[nH]2)cc1 | > 10 µM
82 | CCCc1nc2cc(C(=O)N3CCC4(CC3)CC(=O)N(c3ccc(C(F)(F)F)cc3)C4)cc(C)c2[nH]1 | > 10 µM
83 | Cc1cc(C(=O)N2CCC3(CC2)CC(=O)N(c2ccc(C(F)(F)F)cc2)C3)cc2cn[nH]c12 | > 10 µM
84 | Cc1cc(C(=O)N2CCC3(CC2)CC(=O)c2nn(C(C)(C)C)cc2O3)cc2cn[nH]c12 | 6.51 µM
